The nature of data set [1]: Solubility under the electrophysiological experimental conditions. The format is physicochemical. The settings on record: for solubility: under experimental conditions, read-out: Highest soluble concentration (insoluble above). On the procedure:
To investigate this possibility, we added 100 μM 2b to the pipette solution (internal) and monitored IGABA, and we applied 2b to the outside of the cells and monitored the inhibitory effects (Figure 6). Experiments were performed using 2b, even though cLog P was less than 2, because 2c and 2d were insoluble under the conditions employed. […] Consistent with these findings, in recordings with 2b in the pipette, the amplitude of IGABA was the same 5 min (−1536 ± 379 pA) and 10 min (−1604 ± 409 pA; n = 4) after obtaining the whole-cell configuration. […] Thus, such an inhibition was as large as that observed without 2b inside the cells (Figure 6B).

Data set [2] deals with native GABAA receptors of guinea pig myenteric neurons. The data set is described as follows: Whole-cell recordings of membrane currents induced by GABA (IGABA) in cultured myenteric neurons. Format: cell-based. The settings on record: for Percentage of inhibition of GABA-induced inward currents: 100 μM compound, 3 min treatment, mean ± SEM (n); for Effect of maximal antagonist concentration on IGABA: maximal concentrations used; for Voltage dependence of inhibitory effect (−60 mV vs +40 mV) / Time constant (t) of IGABA inhibition / Time to reach maximum inhibition: 100 μM DBTD; for Time constant (t) of IGABA inhibition: 3–180 s, Michaelis–Menten fit; for Time to reach maximum inhibition: after initial exposure; for Reversibility of current inhibition on washing: within five minutes of washing; for Amplitude of IGABA with compound inside the pipette: 2b 100 μM internal. An excerpt: Guinea pigs (100–200 g; either male or female) were sacrificed by cervical dislocation and carotid exsanguination. These methods have been approved by the Animal Care Committee of the IPICYT and are in agreement with the published Guiding Principles in the Care and Use of Animals, approved by the American Physiological Society. A segment of ~10 cm of the jejunum was removed and placed in a modified Krebs solution (in mM: NaCl, 126; NaH2PO4, 1.2; MgCl2, 1.2; CaCl2, 2.5; KCl, 5; NaH2CO3, 25; glucose, 11. The sample was gassed under 95% O2 and 5% CO2) and opened longitudinally. A dissecting microscope was used to dissect the mucosa and submucosa layers prior to removing most of the circular muscle layer, leaving the myenteric plexus embedded in a longitudinal layer.
The cell isolation procedure has been described elsewhere. The myenteric preparation was dissociated by sequential treatment with two enzymatic solutions: the first solution contained papain (0.01 mL·mL^−1 activated with 0.4 mg·mL^−1L-cysteine), and the second solution contained collagenase (1 mg·mL^−1) and dispase (4 mg·mL^−1). The enzymes were removed by washing the neurons with L15 medium, and the neurons were placed on round coverslips coated with sterile rat-tail collagen. The culture medium was varied from minimal medium to essential medium 97.5% containing 2.5% guinea pig serum, 2 mM L-glutamine, 10 U·mL^−1 penicillin, 10 μg·mL^−1 streptomycin, and 15 mM glucose.
To reduce the effects of the membrane currents other than those mediated by the activation of LGIC, experiments were conducted in the presence of Cs^+ (a potassium channel blocker). […] The holding potential was −60 mV (unless otherwise stated), and the short-term (4–50 h) primary cultures of the myenteric neurons were used to prevent space-clamp problems due to neurite growth. Glass pipettes with a resistance of 2–5 MΩ were prepared as described previously. This low resistance and slight suction inside the pipette during the recordings maintained a low series resistance (around 6 MΩ).
All experiments were conducted using standard solutions with the following compositions (in mM); inside the pipette: CsCl, 160; EGTA, 10; HEPES, 5; NaCl, 10; ATPMg, 3 and GTP, 0.1; external solution: NaCl, 160; CaCl2, 2; glucose, 11; HEPES, 5 and CsCl, 3. The pH of all solutions was adjusted to 7.3–7.4 using either CsOH (pipette solution) or NaOH (external solution). The seal resistance in the whole-cell mode ranged from 1 to 10 GΩ. The whole-cell current data were recorded on a PC using the AxoScope software (Axon Instruments, Inc.) and were analyzed using the AXOGRAPH software (Molecular Devices, CA, USA). The recording chamber was superfused with an external solution at ~2 mL·min^−1. The solution around the neuron was quickly exchanged during recordings using an eight-tube device. Each tube was connected to a syringe (10 mL) containing either the control or the experimental solution. A control tube was positioned ~300 μm in front of the recorded neuron, and substances were applied externally by abruptly interchanging the tube for another tube containing the control solution plus the drug(s). […] Experimental substances were removed by returning to the control solution. External solutions were applied by gravity, and the height of the syringes was continuously adjusted to minimize changes in the flow rate. The experiments were performed at room temperature (24 ± 1 °C).
L15 medium, minimum essential medium, Hanks solution, penicillin-streptomycin, and L-glutamine were purchased from GIBCO (Life Technologies Corp., Carlsbad, CA, USA). Collagenase and papain were purchased from Worthington (Worthington Biochemical Corp., Lakewood, NJ, USA), and dispase was purchased from Roche (Indianapolis, IN, USA). […] Pentobarbital-Na was purchased from Lab Ttokkyo, S.A. (México, D.F., Mexico).

Setting [3] is: DBTD 3–1,000 μM, 3 min before 300 μM GABA, fit assuming 100% inhibition, read-out: IC50 for inhibition of IGABA by DBTDs.

Like-named read-outs stand apart in the source and are kept apart here. Where only a bound is given, the exact number is not on record here.

The term IC50 denotes the concentration that inhibits the measured activity by half. As usually defined, the melting point is the temperature, or range, at which the solid turns liquid.

Turning to `COc1ccc2c(c1)Nc1ccccc1S(=O)(=O)N2` [2e, 9-Methoxy-6,11-dihydrodibenzo[c,f][1,2,5]thiadiazepine-5,5-dioxide], in data set [1], the “Solubility remark (potency could not be calculated)” value was “solubility problems”. For the same compound, in data set [2] (300 μM GABA), the “Percentage of inhibition of GABA-induced inward currents” value was 43.7 ± 3.8 (3) %.

For `O=S1(=O)Nc2ccccc2Nc2ccccc21` [2a, 6,11-Dihydrodibenzo[c,f][1,2,5]thiadiazepine-5,5-dioxide], the “Solubility remark (potency could not be calculated)” value in data set [1] is recorded as “solubility problems”. For the same compound, the “Percentage of inhibition of GABA-induced inward currents” value in data set [2] (300 μM GABA) is on record as 28.4 ± 1.4 (5) %.

Regarding picrotoxin [reference compound], in data set [2] (bicuculline 0.1–100 μM, picrotoxin 3–1,000 μM, data not shown, read-out: IC50 for inhibition of IGABA by GABAA inhibitors), the IC50 stood at 6 ± 1 µM. Further, in data set [2], the “Effect of maximal antagonist concentration on IGABA” value was “virtually abolished IGABA”.

As for `O=S1(=O)Nc2ccc(Cl)cc2Nc2ccccc21` [2c, 9-Chloro-6,11-dihydrodibenzo[c,f][1,2,5]thiadiazepine-5,5-dioxide], the solubility in data set [1] is ≤ 300 µM. For the same compound, in data set [2] (300 μM GABA), the “Voltage dependence of inhibitory effect (−60 mV vs +40 mV)” value is listed as “identical”, the “Time constant (t) of IGABA inhibition” value is on record as 2.6 s and the “Percentage of inhibition of GABA-induced inward currents” value is 74.2 ± 3.6 (6) %. Besides, in data set [2], the “Time to reach maximum inhibition” value is reported as 3 min and the “Reversibility of current inhibition on washing” value is on record as “fully reversed”. In addition, the IC50 in data set [2] (setting [3]) worked out at 50.4 ± 6.4 µM. Moreover, the “Interaction with picrotoxin effect” value in data set [2] (simultaneous application, n = 4) is listed as “neither picrotoxin effect was modified by 2c nor the inhibitory effect of 2c was affected by picrotoxin”.

Turning to `O=C(O)c1ccc2c(c1)Nc1ccccc1S(=O)(=O)N2` [2g, 6,11-Dihydrodibenzo[c,f][1,2,5]thiadiazepine-9-carboxylic acid 5,5-dioxide], the melting point is 350 °C. Besides, in data set [1], the “Solubility remark (potency could not be calculated)” value is reported as “solubility problems”. The “Percentage of inhibition of GABA-induced inward currents” value in data set [2] (300 μM GABA) is recorded as 16.0 ± 2.4 (6) %.

Take `CCOC(=O)c1ncn2c1CN(C)C(=O)c1cc(F)ccc1-2` [flumazenil, reference compound]: in data set [2] (10 μM, 3 min, five neurons, data not shown), the “Effect of flumazenil alone on holding current or IGABA” value is reported as “did not induce changes in the holding current or IGABA”.

Consider `O=S1(=O)Nc2ccc(F)cc2Nc2ccccc21` [2b, 9-Fluoro-6,11-dihydrodibenzo[c,f][1,2,5]thiadiazepine-5,5-dioxide], for which the “Decrease of the maximum of the GABA concentration–response curve” value in data set [2] (100 μM 2b) was ~ 50%. In data set [2] (100 μM 2b, GABA concentration-response curves), the Type of antagonism entry is given as “non-competitive”. In data set [2] (300 μM GABA), the “Voltage dependence of inhibitory effect (−60 mV vs +40 mV)” value is listed as “identical”, the “Time constant (t) of IGABA inhibition” value is recorded as 4.9 s and the “Percentage of inhibition of GABA-induced inward currents” value is listed as 50.8 ± 2.1 (12) %. For the same compound, in data set [2], the “Time to reach maximum inhibition” value is 3 min and the “Reversibility of current inhibition on washing” value was “fully reversed”. Moreover, the “Amplitude of IGABA with compound inside the pipette” value in data set [2] (300 μM GABA, 2 to 3 min after whole cell configuration, n = 4) is reported as −1408 ± 344 pA. In data set [2] (5 min after whole-cell configuration), the “Amplitude of IGABA with compound inside the pipette” value is reported as −1536 ± 379 pA. Moreover, in data set [2] (10 min after whole-cell configuration, n = 4), the “Amplitude of IGABA with compound inside the pipette” value is recorded as −1604 ± 409 pA. For the same compound, in data set [2] (setting [3]), the IC50 came to 104 ± 9.2 µM. In data set [2] (at 1 mM), the “Maximum effect on GABA-activated currents” value is recorded as “complete inhibition”.

Regarding `NCCCC(=O)O` [GABA], the “Amplitude of IGABA among different neurons” value in data set [2] (response to 300 μM GABA, −60 mV) is on record as 0.1–6 nA.

For `CCOC(=O)c1ccc2c(c1)Nc1ccccc1S(=O)(=O)N2` [2f, Ethyl 6,11-dihydrodibenzo[c,f][1,2,5]thiadiazepine-9-carboxylate-5,5-dioxide], the “Solubility remark (potency could not be calculated)” value in data set [1] is on record as “solubility problems”. In addition, in data set [2] (300 μM GABA), the “Percentage of inhibition of GABA-induced inward currents” value was 47.1 ± 3.7 (7) %.

`O=S1(=O)Nc2ccc(Br)cc2Nc2ccccc21` [2d, 9-Bromo-6,11-dihydrodibenzo[c,f][1,2,5]thiadiazepine-5,5-dioxide]: in data set [1], the solubility is ≤ 300 µM. Further, in data set [2] (300 μM GABA), the “Voltage dependence of inhibitory effect (−60 mV vs +40 mV)” value is “identical”, the “Time constant (t) of IGABA inhibition” value is given as 29.3 s and the “Percentage of inhibition of GABA-induced inward currents” value is 74.2 ± 2.4 (10) %. Also, in data set [2] (100 μM, calculated from fit), the “Calculated time required to reach maximum inhibition” value is reported as 17 min. In addition, in data set [2] (100 μM, from Michaelis–Menten fit), the Calculated maximum inhibition was 87.0 ± 3.0%. The IC50 in data set [2] (setting [3]) stood at 47.6 ± 30.3 µM. Further, the “Reversibility of current inhibition on washing” value in data set [2] is listed as “fully reversed”.

Consider `CN1CCc2cc3c(cc2[C@H]1[C@@H]1OC(=O)c2c1ccc1c2OCO1)OCO3` [bicuculline, reference compound], for which the “Effect of maximal antagonist concentration on IGABA” value in data set [2] is listed as “virtually abolished IGABA”. Moreover, the IC50 in data set [2] (read-out: IC50 for inhibition of IGABA by GABAA inhibitors) is 10 ± 2 µM.
